The numbers were not newly measured in patent publication US20150272847A1, “Skin Engaging Shaving Aid Comprising A Thermally Resilient Sensate And A TRPA1 Receptor Inhibitor” (The Gillette Company, priority 2014, published 2015), which cites them from elsewhere.

For the data set the following is noted: compared to menthol at 2 ppm.

`CC(C)[C@@H]1CC[C@@H](C)C[C@H]1C(=O)Nc1ccc(CC#N)cc1` [N-[4-(cyanomethyl)phenyl]-(1R,2S,5R)-2-isopropyl-5-methylcyclohexanecarboxamide]: the “Cooling as compared to menthol” value is on record as “about 10 ×”.
